Among the test systems are A498; HL-60; HCT-116; ACHN; NCI-H226; OVCAR-8; CAKI-1; SW-620; MOLT-4; SK-MEL-5; HCT-15; RXF 393; 786-0; NCI-H460; SK-MEL-2; HOP-18; HT-29; T47D; MDA-N; PC-3.
Common to all, as to assay: NCI-60 cell line screen, 48 h

We go through eleven molecules from ChEMBL document CHEMBL1201862, “PubChem BioAssay data set” (2004).

SMILES strings stand for the structures.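 Briefly, cells in 96-well plates were exposed to five compound concentrations for 48 h, and endpoints were estimated by linear interpolation. GI50 is the concentration that inhibits growth by half.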 Activity calls are given as the source filed them. No stated cut-off is given here; in the data, active = GI50 up to about 1.1 µM and inactive = higher. Where only a bound is given, the exact number is not on record here.

Regarding `O=C(N/C(=C/c1cccc([N+](=O)[O-])c1)c1nc2cc(Cl)ccc2[nH]1)c1ccccc1`, the GI50 in the test on A498 was 13 µM (inactive); in the test on HL-60 it was 1.99 µM (inactive); in the test on HCT-116 it was 8.95 µM (inactive); in the test on ACHN, 11.3 µM (inactive); in the test on NCI-H226 it was 24.4 µM (inactive); in the test on OVCAR-8, 7.5 µM (inactive). In addition, the GI50 in the test with CAKI-1 was 11.1 µM (inactive); in the test with SW-620 it was 5.55 µM (inactive); in the test with MOLT-4 it was 3.83 µM (inactive); in the test on SK-MEL-5, 2.82 µM (inactive); in the test on HCT-15 it was 6.01 µM; in the test on RXF 393, 12.4 µM (inactive). The GI50 was 15.7 µM (inactive) in the test with 786-0; 10.4 µM (inactive) with NCI-H460; 16.1 µM (inactive) in the test with SK-MEL-2; 30.9 µM (inactive) in the test on HOP-18; 8.95 µM (inactive) with HT-29.
Turning to `COc1cc(C2C3=C(COC3=O)Oc3cc4c(cc32)OCO4)cc(OC)c1OC` (stereo unspecified), the GI50 in the test with A498 is 0.00488 µM (active); in the test on T47D, > 10 µM (inactive); in the test with HL-60, 0.0154 µM (active); with HCT-116, < 0.0144 µM (active); in the test on ACHN, < 0.0326 µM (active); with NCI-H226, 0.123 µM (active). In addition, the GI50 is 0.0335 µM (active) with OVCAR-8; 0.0219 µM (active) in the test on MDA-N; 0.01 µM (active) in the test on CAKI-1; 0.0173 µM (active) in the test on SW-620; 0.024 µM (active) with MOLT-4; 0.0198 µM (active) in the test with SK-MEL-5. For the same molecule, the GI50 was less than 0.0158 µM in the test on HCT-15; 0.0106 µM (active) in the test on RXF 393; 0.0333 µM (active) in the test on 786-0; 0.0216 µM (active) with NCI-H460; 0.039 µM (active) in the test with SK-MEL-2; 0.0331 µM (active) in the test on PC-3. Besides, in the test with HOP-18, the GI50 is 0.16 µM (active).
Consider `CCCCCCN(CCCCCC)C1=CC(=O)C(=O)c2ccccc21`, for which the GI50 in the test with A498 was 26.5 µM (inactive); in the test with HL-60, 10.1 µM (inactive); in the test with HCT-116, 17.5 µM (inactive); in the test on ACHN, 17 µM (inactive); in the test with NCI-H226 it was 17.3 µM (inactive); in the test on OVCAR-8, 16.1 µM (inactive). For the same molecule, the GI50 in the test on CAKI-1 was 15 µM (inactive); with SW-620, 14.2 µM (inactive); in the test with MOLT-4, 18.7 µM (inactive); in the test with SK-MEL-5, 17.2 µM (inactive); with HCT-15 it was 17.7 µM; in the test on RXF 393, 25.1 µM (inactive). The GI50 in the test with 786-0 is 16.7 µM (inactive); with NCI-H460, 17.3 µM (inactive); in the test on SK-MEL-2, 18.7 µM (inactive); in the test with HOP-18, 16.1 µM (inactive); with HT-29, 15.1 µM (inactive).
Regarding `C[C@]12CCC3[C@@H](CC[C@@H]4c5nonc5CC[C@]34C)C1CCC2=O` (stereo partly specified), the GI50 in the test with A498 is 21.4 µM (inactive); in the test on HL-60, 15.7 µM (inactive); in the test on HCT-116, 17 µM (inactive); with ACHN it was 24.5 µM (inactive); in the test on NCI-H226, 20 µM (inactive); in the test on OVCAR-8, 31.7 µM (inactive). In addition, the GI50 was 22.9 µM (inactive) in the test on CAKI-1; 37.2 µM (inactive) in the test with SW-620; 23.2 µM (inactive) with MOLT-4; 16.9 µM (inactive) with SK-MEL-5; 29.8 µM with HCT-15; 26.2 µM (inactive) in the test with RXF 393. For the same molecule, the GI50 in the test on 786-0 is 23.8 µM (inactive); in the test on NCI-H460, 19.2 µM (inactive); in the test on SK-MEL-2, 20.3 µM (inactive); in the test with HOP-18 it was 43.9 µM (inactive); in the test on HT-29 it was 16.5 µM (inactive).
With `O=C1C[C@@H]2[C@@H](CCC23CCCC3)N1`, the GI50 in the test on A498, in the test with HL-60, with HCT-116, in the test with ACHN, with NCI-H226 and in the test with OVCAR-8 was > 100 µM (inactive) throughout. The GI50 with CAKI-1 was > 100 µM (inactive); in the test with SW-620 it was > 100 µM (inactive); in the test with MOLT-4 it was > 100 µM (inactive); in the test on SK-MEL-5, > 100 µM (inactive); in the test with HCT-15 it was more than 100 µM; in the test on RXF 393, > 100 µM (inactive). The GI50 with 786-0, in the test with NCI-H460, with SK-MEL-2, in the test with HOP-18 and in the test with HT-29 was > 100 µM (inactive) each time.
In the case of `CCOc1ccc(Nc2nc(C)c(C(=O)/C=C/c3ccc(Cl)cc3Cl)s2)cc1`, the GI50 in the test on A498 is 22.8 µM (inactive); in the test on HL-60, 27.2 µM (inactive); in the test on HCT-116, 21.1 µM (inactive); in the test with ACHN, 27.4 µM (inactive); in the test on NCI-H226, 18.2 µM (inactive); in the test on OVCAR-8, 21.4 µM (inactive). Also, the GI50 in the test on CAKI-1 was 27.1 µM (inactive); in the test on SW-620, 20.6 µM (inactive); in the test with MOLT-4, 23 µM (inactive); in the test with SK-MEL-5, 20 µM (inactive); with HCT-15, 22.2 µM; in the test on RXF 393, 17.7 µM (inactive). Moreover, the GI50 is 19.5 µM (inactive) in the test on 786-0; 21.4 µM (inactive) in the test with NCI-H460; 24 µM (inactive) in the test on SK-MEL-2; 26.3 µM (inactive) in the test on HOP-18; 19.7 µM (inactive) in the test with HT-29.
For the molecule `CC(C)(C)OC(=O)NCCc1cccc2c1oc1c(CCC(=O)O)cccc12`, the GI50 with A498, in the test with HL-60, with HCT-116, in the test with ACHN, in the test on NCI-H226 and in the test with OVCAR-8 was > 100 µM (inactive) in each case. For the same molecule, the GI50 with CAKI-1 is > 100 µM (inactive); in the test with SW-620, > 100 µM (inactive); in the test with MOLT-4, > 100 µM (inactive); in the test with SK-MEL-5, > 100 µM (inactive); in the test with HCT-15, more than 100 µM; with RXF 393, > 100 µM (inactive). Also, the GI50 with 786-0, in the test with NCI-H460, in the test with SK-MEL-2, in the test on HOP-18 and with HT-29 was > 100 µM (inactive) throughout.
On to `CC1OC(=O)C(C(C)C)NC(=O)C(C(C)C)OC(=O)C(C(C)C)NC(=O)C(C)OC(=O)C(C(C)C)NC(=O)C(C(C)C)OC(=O)C(C(C)C)NC(=O)C(C)OC(=O)C(C(C)C)NC(=O)C(C(C)C)OC(=O)C(C(C)C)NC1=O` (stereo unspecified), for which the GI50 is 0.0025 µM (active) with A498; < 0.0001 µM (active) in the test with T47D; 0.00275 µM (active) in the test with HL-60; < 0.0001 µM (active) in the test on ACHN; 0.0025 µM (active) with OVCAR-8; < 0.0001 µM (active) in the test with MDA-N. Also, the GI50 in the test with CAKI-1 was 0.00288 µM (active); with SW-620, 0.0025 µM (active); in the test with MOLT-4 it was 0.0025 µM (active); with HCT-15, 0.0034 µM; in the test with RXF 393 it was 0.00324 µM (active); in the test on 786-0, < 0.0001 µM (active). Moreover, the GI50 in the test with NCI-H460 was 0.00279 µM (active); in the test with SK-MEL-2, 0.00288 µM (active); with PC-3 it was < 0.0001 µM (active); in the test on HOP-18 it was 0.0337 µM (active); in the test on HT-29, 0.0025 µM (active).
Consider `COc1ccc(/C=C2\CCC(CN(C)C)C2=O)cc1` (stereo unspecified), for which the GI50 in the test on A498 was 15 µM (inactive); with HL-60, 1.02 µM (active); in the test on HCT-116 it was 2.29 µM (inactive); in the test on ACHN, 9.77 µM (inactive); in the test on NCI-H226, 16.3 µM (inactive); in the test on OVCAR-8, 3.24 µM (inactive). The GI50 was 3.44 µM (inactive) with MDA-N; 2.4 µM (inactive) with CAKI-1; 1.96 µM (inactive) in the test on SW-620; 1.83 µM (inactive) with MOLT-4; 8.69 µM (inactive) in the test with SK-MEL-5; 2.29 µM with HCT-15. The GI50 was 2.94 µM (inactive) in the test with RXF 393; 1.65 µM (inactive) in the test with 786-0; 16.6 µM (inactive) with NCI-H460; 7.87 µM (inactive) in the test on SK-MEL-2; 5.12 µM (inactive) with PC-3; 6.85 µM (inactive) in the test with HOP-18. For the same molecule, in the test with HT-29, the GI50 is 3.5 µM (inactive).
On to `CN(C)c1ccc(/C=N\N2C(=O)c3ccccc3C2=O)cc1`, for which the GI50 in the test on A498, in the test with HL-60, with HCT-116, in the test on ACHN, in the test on NCI-H226 and with OVCAR-8 was > 100 µM (inactive) throughout. Besides, the GI50 in the test with CAKI-1 is > 100 µM (inactive); in the test on SW-620 it was > 100 µM (inactive); in the test with MOLT-4 it was > 100 µM (inactive); in the test on SK-MEL-5, > 100 µM (inactive); in the test with HCT-15 it was more than 100 µM; in the test with RXF 393, > 100 µM (inactive). The GI50 with 786-0, in the test on NCI-H460, in the test on SK-MEL-2, in the test with HOP-18 and with HT-29 was > 100 µM (inactive) throughout.
Take `Cc1ccc(NC(=O)CC/C(CC(=O)C(C)(C)C)=N/NC(=O)C(N)=O)cc1C`: the GI50 in the test with A498, with HL-60, with HCT-116, with ACHN, in the test on NCI-H226 and in the test with OVCAR-8 was > 100 µM (inactive) each time. For the same molecule, the GI50 is > 100 µM (inactive) in the test with CAKI-1; > 100 µM (inactive) with SW-620; > 100 µM (inactive) in the test on MOLT-4; > 100 µM (inactive) in the test on SK-MEL-5; more than 100 µM in the test with HCT-15; > 100 µM (inactive) with RXF 393. The GI50 in the test with 786-0, in the test on NCI-H460, in the test on SK-MEL-2, with HOP-18 and in the test on HT-29 was > 100 µM (inactive) each time.
